In ChEMBL document CHEMBL3046594, “Bioactive metabolites from an endophytic fungus of Aspergillus species isolated from seeds of Gloriosa superba Linn” (Med Chem Res, 2013):
≈ marks a conversion by molar mass, not a printed value. Calls of active or inactive are those of the source. The rule behind the calls is not given here.

What was measured:
[1] = test system: MCF7; assay: Cytotoxicity against Homo sapiens (human) MCF7 cells assessed as growth inhibition at 1 uM after 48 hr by SRB assay; assay type: functional; conditions: MCF7, 48 h, read-out: GI
[2] = test system: OVCAR-5; assay: Cytotoxicity against Homo sapiens (human) OVCAR5 cells assessed as growth inhibition at 1 uM after 48 hr by SRB assay; assay type: functional; conditions: OVCAR-5, 48 h, read-out: GI
[3] = test system: CV-1; assay: Cytotoxicity against Chlorocebus aethiops (African green monkey) CV1 cells assessed as growth inhibition at 20 uM after 48 hr by SRB assay; assay type: functional; conditions: CV-1, 48 h, read-out: GI
[4] = test system: HEp-2; assay: Cytotoxicity against Homo sapiens (human) Hep2 cells assessed as growth inhibition at 20 uM after 48 hr by SRB assay; assay type: functional; conditions: HEp-2, 48 h, read-out: GI
[5] = test system: THP-1; assay: Cytotoxicity against Homo sapiens (human) THP1 cells assessed as growth inhibition at 20 uM after 48 hr by SRB assay; assay type: functional; conditions: THP-1, 48 h, read-out: GI
[6] = test system: A549; assay: Cytotoxicity against Homo sapiens (human) A549 cells assessed as growth inhibition at 20 uM after 48 hr by SRB assay; assay type: functional; conditions: A549, 48 h, read-out: GI
[7] = test system: Candida albicans; assay: Antifungal activity against Candida albicans MTCC 3018 assessed as growth inhibition at 10 ug/disk after 48 hr by disk diffusion method; assay type: functional; conditions: MTCC 3018, 48 h, read-out: DIZ
[8] = test system: Goffeauzyma gastrica; assay: Antifungal activity against Cryptococcus gastricus MTCC 1715 assessed as growth inhibition at 10 ug/disk after 48 hr by disk diffusion method; assay type: functional; conditions: MTCC 1715, 48 h, read-out: DIZ
[9] = test system: Saccharomyces cerevisiae; assay: Antifungal activity against Saccharomyces cerevisiae MTCC 172 assessed as growth inhibition at 10 ug/disk after 48 hr by disk diffusion method; assay type: functional; conditions: MTCC 172, 48 h, read-out: DIZ
[10] = test system: Salmonella typhi; assay: Antibacterial activity against Salmonella enterica subsp. enterica serovar Typhi MTCC 1251 assessed as growth inhibition at 2 mg/mL after 24 hr by disk diffusion method; assay type: functional, organism-based
[11] = test system: Staphylococcus aureus; assay: Antibacterial activity against Staphylococcus aureus MTCC 96 assessed as growth inhibition after 24 hr by broth dilution method; assay type: functional; conditions: MTCC 96, 24 h
[12] = test system: Saccharomyces cerevisiae; assay: Antifungal activity against Saccharomyces cerevisiae MTCC 172 assessed as growth inhibition at 2 mg/mL after 48 hr by disk diffusion method; assay type: functional; conditions: MTCC 172, 48 h, read-out: DIZ
[13] = test system: Escherichia coli; assay: Antibacterial activity against Escherichia coli MTCC 82 assessed as growth inhibition at 2 mg/mL after 24 hr by disk diffusion method; assay type: functional; conditions: MTCC 82, 24 h, read-out: DIZ
[14] = test system: Candida albicans; assay: Antifungal activity against Candida albicans MTCC 3018 assessed as growth inhibition after 48 hr by broth dilution method; assay type: functional
[15] = test system: Escherichia coli; assay: Antibacterial activity against Escherichia coli MTCC 82 assessed as growth inhibition after 24 hr by broth dilution method; assay type: functional; conditions: MTCC 82, 24 h
[16] = test system: Candida albicans; assay: Antifungal activity against Candida albicans MTCC 3018 assessed as growth inhibition at 2 mg/mL after 48 hr by disk diffusion method; assay type: functional
[17] = test system: Bacillus subtilis; assay: Antibacterial activity against Bacillus subtilis MTCC 2451 assessed as growth inhibition after 24 hr by broth dilution method; assay type: functional; conditions: MTCC 2451, 24 h
[18] = test system: Bacillus subtilis; assay: Antibacterial activity against Bacillus subtilis MTCC 2451 assessed as growth inhibition at 2 mg/mL after 24 hr by disk diffusion method; assay type: functional; conditions: MTCC 2451, 24 h, read-out: DIZ
[19] = test system: Goffeauzyma gastrica; assay: Antifungal activity against Cryptococcus gastricus MTCC 1715 assessed as growth inhibition after 48 hr by broth dilution method; assay type: functional
[20] = test system: Goffeauzyma gastrica; assay: Antifungal activity against Cryptococcus gastricus MTCC 1715 assessed as growth inhibition at 2 mg/mL after 48 hr by disk diffusion method; assay type: functional
[21] = test system: Salmonella typhi; assay: Antibacterial activity against Salmonella enterica subsp. enterica serovar Typhi MTCC 1251 assessed as growth inhibition after 24 hr by broth dilution method; assay type: functional, organism-based
[22] = test system: Pseudomonas aeruginosa; assay: Antibacterial activity against Pseudomonas aeruginosa MTCC 2642 assessed as growth inhibition after 24 hr by broth dilution method; assay type: functional
[23] = test system: Pseudomonas aeruginosa; assay: Antibacterial activity against Pseudomonas aeruginosa MTCC 2642 assessed as growth inhibition at 2 mg/mL after 24 hr by disk diffusion method; assay type: functional
[24] = test system: Saccharomyces cerevisiae; assay: Antifungal activity against Saccharomyces cerevisiae MTCC 172 assessed as growth inhibition after 48 hr by broth dilution method; assay type: functional
[25] = test system: Staphylococcus aureus; assay: Antibacterial activity against Staphylococcus aureus MTCC 96 assessed as growth inhibition at 2 mg/mL after 24 hr by disk diffusion method; assay type: functional; conditions: MTCC 96, 24 h, read-out: DIZ

In the case of CO[C@@]12[C@H](COC(N)=O)C3=C(C(=O)C(C)=C(N)C3=O)N1C[C@@H]1N[C@@H]12 [MITOMYCIN], the inhibition of growth at 1 µM [1] is reported as 82% and the inhibition of growth at 1 µM [2] is reported as 71%.

For O=c1[nH]cc(F)c(=O)[nH]1 [FLUOROURACIL], the inhibition of growth at 20 µM [3] was 43%, the inhibition of growth at 20 µM [4] was 87% and the inhibition of growth at 20 µM [5] was 79%. For the same compound, the inhibition of growth at 20 µM [6] was 79%.

With OC(Cn1cncn1)(Cn1cncn1)c1ccc(F)cc1F [FLUCONAZOLE] the zone of inhibition at 10 µg/disc [7] was 20 mm, the zone of inhibition at 10 µg/disc [8] was 19.7 mm and the zone of inhibition at 10 µg/disc [9] was 21 mm.

In the case of O=Cc1ccc(CO)o1 [AES-103], the “growth inhibition (GI)” value [10] is reported as “inactive”, the MIC [11] is reported as 200 µg/mL (≈ 1590 µM) and the zone of inhibition at 2000 µg/mL [12] is reported as 8.1 mm. For the same compound, the zone of inhibition at 2000 µg/mL [13] was 9 mm, the MIC [14] was “inactive” and the MIC [15] was 400 µg/mL (≈ 3170 µM). For the same compound, the “growth inhibition (GI)” value [16] was “inactive”, the MIC [17] was 100 µg/mL (≈ 793 µM) and the zone of inhibition at 2000 µg/mL [18] was 11.5 mm. For the same compound, the MIC [19] was “inactive”, the “growth inhibition (GI)” value [20] was “inactive” and the MIC [21] was “inactive”. For the same compound, the MIC [22] was “inactive”, the “growth inhibition (GI)” value [23] was “inactive” and the MIC [24] was “inactive”. The zone of inhibition at 2000 µg/mL [25] was 13.1 mm.
